Experimental data: patent US20120214824A1, “PROTEOSTASIS REGULATORS” (priority 2010, published 2012)

Assays:
firefly luciferase = assay: Luciferase folding assay (Lucif.); assay type: cell-based, human; details: HeLa-luciferase cells; for Lucif. (luciferase activity induction): Table 1a
Source text: Firefly luciferase is a commonly used bioluminescent reporter. This monomeric enzyme of 61 kDa catalyzes a two-step oxidation reaction to yield light, usually in the green to yellow region, typically 550-570 nm. The first step of this reaction is activation of the luciferyl carboxylate by ATP to yield a reactive mixed anhydride. In the second step, the activated intermediate reacts with oxygen to create a transient dioxetane that breaks down to the oxidized products, oxyluciferin and CO2. Upon mixing with substrates, firefly luciferase produces an initial burst of light that decays over about 15 seconds to a low level of sustained luminescence. This kinetic profile reflects the slow release of the enzymatic product, thus limiting catalytic turnover after the initial reaction.
This mammalian cell based assay that used firefly luciferase as a sensor was used to screen for compounds that may modulate the cellular folding environment.
HeLa luciferase cell lines: Frozen bullets containing the cells were thawed briefly at 37° C. then placed into a T-150 flask containing 30-35 ml DMEM medium+Penicillin/Strep (1% final+10% FBS (final)+Geneticin @ 200-500 ug/ml. Cell cultures were maintained at 37° C. with 5% CO2 and water in the bottom of the incubator to keep cells healthy. Upon expanding cell line, luciferase measurements were taken to make sure that activity levels were between 2000-5000 (RLU) when plated at 15K/well in a 96-well format (Bright-Glo Promega) before compound treatment.
Compound treatment of HeLa-luciferase cells: HeLa-luciferase WT cells were plated in a 96-well format at 15K/well the day prior to performing compound treatment and/or luciferase assay. […] Final volume used per well was 90 uL. Flat bottom, white polystyrene plates were used for plating the cells.
For compound treatment, stocks of compounds were made up at 10 mM concentration in DMSO. Stocks compounds were diluted by 100× fold in the same media used for culturing the cells—this leads to a 0.1 mM (or 100 uM) concentration. After diluting the compound in media, 10 uL of the 100 uM solution was placed into each well of cells (90 uL); making the final concentration of the compound 10 uM. If serial dilutions of compounds were tested, serial dilutions of compounds were first made in DMSO accordingly, and further diluted in the media, prior to adding to cells. This procedure allowed for constant final levels of DMSO concentrations, regardless of initial compound concentration.
Performing luciferase activity assay: Bright-Glo Luciferase Assay Reagent (Promega cat #: E2610, E2620, E2650) was thawed out at RT in a water bath. Alternatively, Bright-Glo Luciferase assay buffer (prior to mixing with substrate) was stored overnight at RT, prior to using.
Following compound treatment, plates were removed from 37° C. and allowed to acclimate to RT for 5-10 min. Bright-Glo reagent was added to each cell-containing well in a 1:1 ratio (e.g., 100 uL of Bright Glo for each 100 uL cells).
Plates were placed on a plate shaker for 5 min, removing any air bubbles on the surface (which may interfere with proper reads), and then read on an EnVision 2104 Multilabel reader, Emission filter Luminescence 700, barcode 212, WL 400-700 nm.
Data for representative compounds in this assay are shown under the heading “Lucif.”

HspA5 = assay: Multigene assay (QuantiGene Plex 2.0), mouse MEF cell line; assay type: cell-based; details: 6 hours post-compound treatment
Experimental: (§1) This assay used the QuantiGene Plex 2.0 Reagent System from Affymetrix. This assay combines the use of bDNA (branch DNA) and xMAP magnetic capture beads from Luminex Technologies to quantitatively and simultaneously detect multiple mRNA transcripts per well. The overall procedure was performed according to the QuantiGene Plex 2.0 Reagent System instruction manual from Affymetrix.
(§2) Cells were seeded at a density of 12,000 cells/well in 96-well plates with an overnight incubation at 37° C., 5% CO2. Cells were treated with serially diluted compounds in a 7-point dose dependent manner. Cell lysis with 50% [v/v] Panomics Lysis Mixture (Lysis Mixture+10 μl/ml 25 Proteinase K) was performed 6 hours post-compound treatment. Lysed cells were heated at 50° C. to ensure appropriate lysing and the plates were then frozen at −80° C. Cell lysates, thawed at room temperature on the day of the assay, were pooled with mouse 8-gene multiplex probe sets and with 8 different sets of magnetic capture beads (Luminex Technology, Austin, Tex.) in a 100 μl/well volume. Biomek FX was used at every liquid transfer step. The eight plates containing lysate-probe-bead mixtures were incubated at 54° C.±1° C. on a shaking platform for an overnight incubation in the dark (18-20 hours). The following day the hybridization plates were compressed by transferring the hybridized lysates into a single magnetic capture plate. The plate was kept on a magnet to hold the beads and then washed with Panomics Wash Buffer 2.0 on a BioTek ELx405 select plate washer to remove any unbound sample. This step was followed by serial hybridizations and washings of the bDNA pre-amplifier (1 hour, 50° C.), bDNA amplifier (1 hour, 50° C.), label probe (1 hour, 50° C.), and streptavidin-phycoerythrin (SAPE, 30 minutes, room temperature). (Zhang, A. et al. Small interfering RNA and gene expression analysis using a multiplex branched DNA assay without RNA purification. J Biomol Screen 10, 549-56 (2005)). The plate was then washed with SAPE wash buffer to remove unbound SAPE and each well was analyzed with the Luminex FlexMap3D (Luminex, Austin, Tex.). SAPE fluorescence measured from each bead was proportional to the number of mRNA transcripts captured by the beads (Zheng, Z., Luo, Y. & McMaster, G. K. Sensitive and quantitative measurement of gene expression directly from a small amount of whole blood. Clin Chem 52, 1294-302 (2006)). Fold changes in gene expression were obtained for each gene per well by normalizing the raw data first to the DMSO control and then to a housekeeping gene (TBP-TATA binding protein or Tub1-alpha-tubulin).

BCL2 = assay: as above; assay type: cell-based; details: 6 hours post-compound treatment
Experimental: as §1, §2

GCLM = assay: as above; assay type: cell-based; details: 6 hours post-compound treatment
Experimental: as §1, §2

HMOX = assay: as above; assay type: cell-based; details: 6 hours post-compound treatment
Experimental: as §1, §2

TUB1 = assay: as above; assay type: cell-based; details: 6 hours post-compound treatment
Experimental: as §1, §2

DDIT3 = assay: as above; assay type: cell-based; details: 6 hours post-compound treatment
Experimental: as §1, §2

HSPA1a = assay: as above; assay type: cell-based; details: 6 hours post-compound treatment
Experimental: as §1, §2

SMILES	Lucif (luciferase activity induction) (firefly luciferase; Table 3a)	HspA5 gene induction (HspA5; Table 3b)	BCL2 gene induction (BCL2; Table 3b)	GCLM gene induction (GCLM; Table 3a)	HMOX gene induction (HMOX; Table 3b)	TUB1 gene induction (TUB1; Table 3a)	DDIT3 gene induction (DDIT3; Table 3a)	HSPA1a gene induction (HSPA1a; Table 3b)	Lucif (luciferase activity induction) (firefly luciferase; Table 2a)	HspA5 gene induction (HspA5; Table 2b)	BCL2 gene induction (BCL2; Table 2b)	GCLM gene induction (GCLM; Table 2a)	HMOX gene induction (HMOX; Table 2b)	TUB1 gene induction (TUB1; Table 2a)	DDIT3 gene induction (DDIT3; Table 2a)	HSPA1a gene induction (HSPA1a; Table 2b)	also measured
CCCc1n[nH]c2c1C(c1ccccc1Br)C(C#N)=C(N)O2 (stereo not shown) [drawing 28/(CH2)2Me/2-Br]	+ (+ indicates a induction of greater than 2 fold)	− (− Indicates less than 2 fold induction)	− (− Indicates less than 2 fold induction)	+ (+ indicates a induction of greater than 2 fold)	+ (+ indicates a induction of greater than 2 fold)	− (− Indicates less than 2 fold induction)	− (− Indicates less than 2 fold induction)	− (− Indicates less than 2 fold induction)									
CC1=C(C(=O)OCC(C)C)C(c2ccc(F)cc2)C2=C(CC(c3cccs3)CC2=O)N1 (stereo not shown) [drawing 26/Me/COOCH2CHMe2/p-F #1]																	Lucif. (luciferase activity induction) (firefly luciferase): + (+ indicates a induction of greater than 2 fold)
CCCc1n[nH]c2c1C(c1ccccc1C(F)(F)F)C(C#N)=C(N)O2 (stereo not shown) [drawing 28/(CH2)2Me/2-CF3 #2]	+ (+ indicates a induction of greater than 2 fold)	− (− Indicates less than 2 fold induction)	− (− Indicates less than 2 fold induction)	+ (+ indicates a induction of greater than 2 fold)	+ (+ indicates a induction of greater than 2 fold)	− (− Indicates less than 2 fold induction)	− (− Indicates less than 2 fold induction)	− (− Indicates less than 2 fold induction)									
CCCc1n[nH]c2c1C(c1cc(Br)ccc1O)C(C#N)=C(N)O2 (stereo not shown) [drawing 28/(CH2)2Me/2-OH-5-Br]	+ (+ indicates a induction of greater than 2 fold)	− (− Indicates less than 2 fold induction)	− (− Indicates less than 2 fold induction)	+ (+ indicates a induction of greater than 2 fold)	+ (+ indicates a induction of greater than 2 fold)	− (− Indicates less than 2 fold induction)	− (− Indicates less than 2 fold induction)	− (− Indicates less than 2 fold induction)									
CC1=C(C#N)C(c2ccccc2OC(C)C)C2=C(CC(c3ccccc3)CC2=O)N1 (stereo not shown) [drawing 27/Me/CN/o-OCHMe2/H]									+ (+ indicates a induction of greater than 2 fold)	− (− Indicates less than 2 fold induction)	− (− Indicates less than 2 fold induction)	− (− Indicates less than 2 fold induction)	− (− Indicates less than 2 fold induction)	− (− Indicates less than 2 fold induction)	− (− Indicates less than 2 fold induction)	− (− Indicates less than 2 fold induction)	
CC1=C(C#N)C(c2ccc(F)cc2)C2=C(CC(c3cccs3)CC2=O)N1 (stereo not shown) [drawing 26/Me/CN/p-F]																	Lucif. (luciferase activity induction) (firefly luciferase): + (+ indicates a induction of greater than 2 fold); HspA5 gene induction (HspA5; Table 1b): − (− Indicates less than 2 fold induction); BCL2 gene induction (BCL2; Table 1b): − (− Indicates less than 2 fold induction); GCLM gene induction (GCLM; Table 1a): − (− Indicates less than 2 fold induction); HMOX gene induction (HMOX; Table 1b): − (− Indicates less than 2 fold induction); TUB1 gene induction (TUB1; Table 1a): − (− Indicates less than 2 fold induction); DDIT3 gene induction (DDIT3; Table 1a): − (− Indicates less than 2 fold induction); HSPA1a gene induction (HSPA1a; Table 1b): − (− Indicates less than 2 fold induction)
CC1=C(C#N)C(c2ccc(F)cc2)C2=C(CC(c3ccccc3)CC2=O)N1 (stereo not shown) [drawing 27/Me/CN/p-F/H]									+ (+ indicates a induction of greater than 2 fold)	− (− Indicates less than 2 fold induction)	− (− Indicates less than 2 fold induction)	− (− Indicates less than 2 fold induction)	+ (+ indicates a induction of greater than 2 fold)	− (− Indicates less than 2 fold induction)	+ (+ indicates a induction of greater than 2 fold)	− (− Indicates less than 2 fold induction)	
CC(C)Oc1ccccc1C1C(C#N)=C(N)NC2=C1C(=O)CC(c1ccccc1)C2 (stereo not shown) [drawing 27/NH2/CN/o-OCHMe2/H]									+ (+ indicates a induction of greater than 2 fold)	− (− Indicates less than 2 fold induction)	− (− Indicates less than 2 fold induction)	− (− Indicates less than 2 fold induction)	+ (+ indicates a induction of greater than 2 fold)	− (− Indicates less than 2 fold induction)	+ (+ indicates a induction of greater than 2 fold)	+ (+ indicates a induction of greater than 2 fold)	
COC(=O)C1=C(C)Nc2c(c(=O)n(C)c(=O)n2C)C1c1ccc(F)cc1 (stereo not shown) [A]																	HspA5 gene induction (HspA5; Table 6): — (— Indicates less than 2 fold induction); BCL2 gene induction (BCL2; Table 6): + (+ indicates a induction of greater than 2 fold); GCLM gene induction (GCLM; Table 6): — (— Indicates less than 2 fold induction); HMOX gene induction (HMOX; Table 6): — (— Indicates less than 2 fold induction); TUB1 gene induction (TUB1; Table 6): — (— Indicates less than 2 fold induction); DDIT3 gene induction (DDIT3; Table 6): + (+ indicates a induction of greater than 2 fold); HSPA1a gene induction (HSPA1a; Table 6): — (— Indicates less than 2 fold induction)
